ChEMBL document CHEMBL1201862, “PubChem BioAssay data set” (2004)
The source made the active and inactive calls.

Experiments:
[1] = Counterscreen for inhibitors of Trypanosoma brucei methionyl tRNA synthetase (MetRS): Luminescence-based cell-based high throughput dose response assay to identify compounds that are cytotoxic to Jurkat human T lymphocyte cells.; type: functional
[2] = target: Photoreceptor-specific nuclear receptor (Homo sapiens, UniProt Q9Y5X4); type: functional, cell-based;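 also: CHO-S cells with Gal4-NCOR and VP16-NR2E3 two-hybrid luciferase reporter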
[3] = target: T1, Methionyl-tRNA synthetase, putative (Trypanosoma brucei brucei, UniProt Q38C91); type: functional, Trypanosoma brucei brucei strain 927/4 GUTat10.1
T1 sequence (Q38C91 whole entry): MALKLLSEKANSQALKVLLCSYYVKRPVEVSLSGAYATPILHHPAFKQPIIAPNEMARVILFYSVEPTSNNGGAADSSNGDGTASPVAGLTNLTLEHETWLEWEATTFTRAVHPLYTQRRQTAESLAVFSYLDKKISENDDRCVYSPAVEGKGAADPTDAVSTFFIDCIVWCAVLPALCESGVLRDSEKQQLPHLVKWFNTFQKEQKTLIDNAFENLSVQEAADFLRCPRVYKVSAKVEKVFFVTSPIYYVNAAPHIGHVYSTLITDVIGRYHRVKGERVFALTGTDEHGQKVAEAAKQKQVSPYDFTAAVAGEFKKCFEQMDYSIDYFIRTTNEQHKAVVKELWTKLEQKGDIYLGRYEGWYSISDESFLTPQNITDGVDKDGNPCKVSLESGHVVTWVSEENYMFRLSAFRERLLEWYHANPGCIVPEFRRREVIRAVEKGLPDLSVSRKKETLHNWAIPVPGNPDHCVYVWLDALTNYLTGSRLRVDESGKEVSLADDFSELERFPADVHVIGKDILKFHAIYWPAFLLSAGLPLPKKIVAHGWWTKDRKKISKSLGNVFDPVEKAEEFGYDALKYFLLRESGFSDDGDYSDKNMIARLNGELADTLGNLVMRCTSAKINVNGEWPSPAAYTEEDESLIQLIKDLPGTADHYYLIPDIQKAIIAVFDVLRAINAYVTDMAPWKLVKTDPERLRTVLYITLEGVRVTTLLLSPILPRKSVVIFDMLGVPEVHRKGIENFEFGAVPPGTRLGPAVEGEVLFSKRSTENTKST

[4] = target: T1, Methionyl-tRNA synthetase, putative; type: functional, Trypanosoma brucei brucei strain 927/4 GUTat10.1; remark: listed apart in the source
[5] = target: Protein Wnt-3a (Mus musculus, UniProt P27467); assay: SAR analysis of small molecule antagonists of Gli-SUFU in a Wnt3a luminescent reporter assay.; type: functional
[6] = general mammalian cell viability loss – inhibitor set, cherry-pick, set 2, cytotoxicity control for miR-122 modulator project, dose response (AID 720697); type: functional, cell-based
[7] = target: fMet-Leu-Phe receptor (Homo sapiens, UniProt P21462); assay: formyl peptide receptor binders – dose response (AID 519); type: functional
[8] = target: Long-chain-fatty-acid--AMP ligase FadD28 (Mycobacterium tuberculosis, UniProt P9WQ59); assay: Fluorescence polarization aasay to screen for inhibitors that compete for the binding of FadD28 to a bisubstrate Measured in Biochemical System Using Plate Reader - 2147-01_Inhibitor_Dose_CherryPick_Activity.; type: functional, Mycobacterium tuberculosis H37Rv
[9] = target: Disintegrin and metalloproteinase domain-containing protein 17 (Homo sapiens, UniProt P78536); assay: exosite inhibitors of ADAM17, dose response, biochemical (AID 743260)
[10] = inhibition of ADAM10 peptide cleavage – biochemical, FRET peptide substrate, recombinant human ADAM10, selectivity assay for ADAM17 exosite inhibitor project, dose response (AID 743259);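 also: ADAM10 enzyme cleaving a FRET peptide substrate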
[11] = target: T2, Nuclear receptor subfamily 0 group B member 1 (Homo sapiens, UniProt P51843); type: functional, cell-based;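 also: HEK293T cells transfected with SF-1 and DAX-1 plus StAR promoter luciferase reporter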
T2 sequence (P51843 whole entry): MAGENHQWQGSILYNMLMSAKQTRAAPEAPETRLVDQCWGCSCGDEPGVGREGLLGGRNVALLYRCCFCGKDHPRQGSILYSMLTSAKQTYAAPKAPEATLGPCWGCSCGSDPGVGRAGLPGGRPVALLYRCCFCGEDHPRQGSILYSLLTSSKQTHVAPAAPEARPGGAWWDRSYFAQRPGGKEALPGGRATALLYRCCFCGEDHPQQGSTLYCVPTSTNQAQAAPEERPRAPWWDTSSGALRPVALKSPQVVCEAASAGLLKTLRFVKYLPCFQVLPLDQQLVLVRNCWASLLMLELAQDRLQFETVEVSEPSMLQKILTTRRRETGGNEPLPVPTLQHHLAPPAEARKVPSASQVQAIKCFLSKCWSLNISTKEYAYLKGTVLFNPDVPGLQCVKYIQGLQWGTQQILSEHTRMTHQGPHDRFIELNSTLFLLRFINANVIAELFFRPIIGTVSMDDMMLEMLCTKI

[12] = cells; type: functional, cell-based
[13] = target: T3, Galanin receptor type 3 (Homo sapiens, UniProt O60755); assay: Fluorescence-based cell-based primary high throughput dose response assay to identify antagonists of the Galanin Receptor 3 (GalR3).; type: functional
T3 sequence (O60755 whole entry): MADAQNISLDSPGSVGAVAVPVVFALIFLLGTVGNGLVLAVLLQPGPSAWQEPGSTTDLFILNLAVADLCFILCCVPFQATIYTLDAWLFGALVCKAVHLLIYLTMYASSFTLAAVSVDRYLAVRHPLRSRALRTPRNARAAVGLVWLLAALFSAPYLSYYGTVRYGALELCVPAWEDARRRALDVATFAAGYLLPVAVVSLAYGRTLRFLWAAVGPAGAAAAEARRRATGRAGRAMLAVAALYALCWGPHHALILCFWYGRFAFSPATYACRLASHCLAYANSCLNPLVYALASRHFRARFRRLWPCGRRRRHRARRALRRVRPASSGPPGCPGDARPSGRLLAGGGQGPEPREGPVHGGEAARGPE

[14] = cells
[15] = target: Major prion protein (Homo sapiens, UniProt P04156); type: functional, cell-based
[16] = cells; type: functional, cell-based; settings: HEK-CNG
[17] = target: Beta-galactosidase (Escherichia coli, UniProt Q8VNN2); assay: Dose response counterscreen for EBI2 assay utilizing the enzyme, b-galactosidase.; type: functional
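For EC50 in this document: target is galanin receptor GalR3 read with a cAMP biosensor in HEK293 cells.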

Structure (SMILES): COc1cccc(NC(=O)CSc2nc3cc(Br)c[nH]c-3n2)c1
- IC50 [1]: 83.3 µM (inactive)
- IC50 [2]: 0.377 µM (active)
- IC50 [3]: 2 µM (active)
- IC50 [4]: 4.03 µM (active)

Structure (SMILES): CCN(CC)c1cc(NC(=O)c2ccccc2)nc(C)n1
- IC50 [5]: > 21.8 µM (inactive)

Structure (SMILES): CNC(=O)C[C@@H]1CC[C@@H]2[C@H](COc3ccc(NC(=O)Nc4ccc(Cl)cc4)cc3C(=O)N2C)O1
- AC50 [6]: 0.415 µM (active)

Structure (SMILES): O=C(C1=C(O)C(=O)N(Cc2ccccc2)C1c1cccnc1)c1ccco1 (stereo not drawn)
- Ki [7]: 30.5 µM (inactive)

Structure (SMILES): O=c1c2c(O)cc(CSc3nnnn3-c3ccccc3)nc2[nH]n1-c1ccccc1
- AC50 [8]: > 100 µM (inactive)

Structure (SMILES): CCc1cc(C(=O)OC)c(NC(=O)C2CC(=O)NN2Cc2ccccc2)s1 (stereo not drawn)
- IC50 [9]: > 69.5 µM (inactive)
- IC50 [10]: > 69.5 µM (inactive)

Structure (SMILES): CC1=C(C(=O)Nc2ccc(CC(=O)NCc3ccc(OC(C)C)cc3)cc2)SCCO1
- IC50 [11]: > 67.5 µM (inactive)
- IC50 [12]: > 67.5 µM (inactive)

Structure (SMILES): Cc1cc(Br)cn2c(Cc3cccc(Cl)c3)c(-c3ccco3)nc12
- IC50 [13]: 8.41 µM (active)
- IC50 [14]: 66.2 µM (inactive)
- IC50 [15]: 10.5 µM (inactive)
- EC50 [16]: > 29.9 µM (inactive)

Structure (SMILES): Cc1ccc(NC2=CC(=O)CC(c3ccc(Cl)cc3)C2)cc1 (stereo not drawn)
- IC50 [17]: > 80 µM (inactive)

Structure (SMILES): CCOc1ccc(C(=O)C2=C(O)C(=O)N(CC3CCCO3)C2c2ccc(C)o2)cc1 (stereo not drawn)
- Ki [7]: 21.1 µM (inactive)
